This note sets out measurements from paper PMC6594751, “The mechanism of error induction by the antibiotic viomycin provides insight into the fidelity mechanism of translation” (eLife, 2019).

For the experiment, the system named is 70S ribosomes displaying cognate (UUC) or near-cognate (CUC) codon in the A site. As to the kind of experiment: GTP hydrolysis by EF-Tu in ternary complex (initial codon selection), quench-flow. Format: biochemical, E. coli. An excerpt:
To study the impact of viomycin on translational accuracy, we designed experiments to measure its effect on the kinetic efficiency ( kcat/KM ) of GTP hydrolysis by EF-Tu and peptide bond formation for both cognate and near-cognate codon-anticodon interactions. A reaction mixture containing varying concentrations of viomycin and Phe-tRNAGAAPhe in TC with EF-Tu·GTP was rapidly mixed in a quench-flow instrument with initiated 70S ribosomes displaying either cognate (UUC) or near-cognate (CUC) codons in the A site. For studying GTP hydrolysis, the TCs contained [^3H]GTP and the 70S ribosomes had non-radioactive fMet-tRNA^fMet in the P site, while for studying peptide bond formation the TCs contained non-radioactive GTP and the 70S ribosomes had f[^3H]Met-tRNA^fMet bound in the P site. The reactions were stopped at different times by addition of formic acid and the relative amounts of the reaction products were analyzed by ion-exchange chromatography ([^3H]GDP) or RP-HPLC (f[^3H]Met-Phe) with on-line radiation detection.
All experiments were performed at 37°C in HEPES-polymix buffer (95 mM KCl, 5 mM NH4Cl, 0.5 mM CaCl2, 8 mM putrescine, 1 mM spermidine, 5 mM Mg(OAc)2, 1 mM dithioerythritol and 5 mM HEPES pH 7.5). All reaction mixes contained 10 mM phosphoenolpyruvate (PEP), 1 µg/ml pyruvate kinase (PK) and 0.1 µg/ml myokinase (MK). His-tagged initiation factors IF1, IF2 and IF3, elongation factor Ts, and phenylalanine and leucine aminoacyl tRNA-synthetases were purified using nickel-affinity chromatography (HisTrap GE Healthcare). Wild-type elongation factor Tu was prepared as in [Ehrenberg et al. (1990)]. All protein concentrations were determined using the Bradford assay. Ribosomes (E. coli MRE600) and f[^3H]Met-tRNA^fMet were prepared according to [Antoun et al. (2004)]; ribosome concentration was determined spectrophotometrically. XR7 mRNAs with coding sequences AUG-UUC, AUG-CUC, AUG-UAC and AUG-UUA were prepared as in [Borg and Ehrenberg (2015)], see theGV Appendix I for full mRNA sequences. tRNA^Phe was prepared as in [Holm et al. (2016)]. [^3H]Met and [^3H]GTP were from Perkin-Elmer, viomycin was from USP, all other chemicals were from either Merck or Sigma-Aldrich.
Two mixtures were prepared. The ribosome mixture contained 70S ribosomes (1.0–2.0 µM), IF1, IF2 and IF3 (2 µM each), fMet-tRNA^fMet(1.5–3.0 µM), mRNA (3 µM), GTP (1 mM) and ATP (1 mM). The TC mixture contained EF-Tu (0.3–0.6 µM), phenylalanine (200 µM), PheRS (0.5 µM), tRNA^Phe (2 µM), viomycin (0–2000 µM), [^3H]GTP (0.3–0.6 µM) and ATP (2 mM). After 15 min incubation at 37°C, equal volumes of the two mixes were rapidly mixed and the reaction quenched at different time points with formic acid (17% final concentration) using a quench-flow instrument (RQF-3 KinTek corp.). After quenching, the samples were centrifuged at 20,800 g. The supernatant, containing the [^3H]GTP and [^3H]GDP was analyzed by anion exchange chromatography with on-line scintillation counting (β-RAM model 4 IN/US systems). A Mono-Q GL column (GE Healthcare) was used and the mobile phase was a multistep gradient of 0–2 M NaCl in 20 mM Tris (pH 7.5).
Reaction rates were estimated by fitting of single exponential functions to the experimental time courses except for the GTP hydrolysis reactions without viomycin on near-cognate codons which were analyzed as in [Johansson et al. (2012)]. kcat/KM values were estimated by fitting of the Michaelis-Menten equation to plots of reaction rates versus concentration. […]

With viomycin, the “reduction in the accuracy of initial codon selection” value (CUC vs UUC, 1 mM viomycin vs absence of viomycin) came to 170 fold. For the same substance, under “cognate UUC codon, Phe-tRNA^Phe TC, viomycin 0 to 1 mM, HEPES-polymix pH 7.5, 37°C, error SEM”, the “kcat/KM of cognate GTP hydrolysis (average over 0 to 1 mM viomycin)” value turned out to be 41 ± 0.6 µM⁻¹ s⁻¹. For the setting “cognate UUC codon, viomycin 0 to 1 mM, 37°C”, the “effect of viomycin on kcat/KM of cognate GTP hydrolysis” value is listed as “did not change with increasing viomycin concentration”. Also, the “kcat/KM of near-cognate GTP hydrolysis” value (near-cognate CUC codon, 1 mM viomycin (0.053 ± 0.005 in the absence of viomycin), HEPES-polymix pH 7.5, 37°C, error SEM) amounted to 9.2 ± 0.7 µM⁻¹ s⁻¹. Further, the Ki (tRNA^Phe(GAA) reading near-cognate codon CUC, fit of Equation 4 (Figure 1B), 37°C, read-out: KI (viomycin concentration at which accuracy has decreased to two), from GTP hydrolysis) amounted to 3.1 ± 0.2 mM.
